In patent publication US9085576B2 (AMGEN INC., priority 2013, dated 2015):

Assays:
Cathepsin D (Cat D) = Cathepsin D (Cat D) (Homo sapiens (Human), UniProt P07339); assay: In vitro enzymatic Cathepsin D (Cat D) FRET assay; type: biochemical; conditions: read-out: CatD IC50
[1] = target: Beta Secretase enzyme (BACE) (Homo sapiens (Human), UniProt P56817); assay: In vitro enzymatic BACE FRET assay; type: biochemical; conditions: read-out: BACE1 Enzyme assay IC50
Method: In Vitro Enzymatic BACE FRET (Fluorescence Resonance Energy Transfer) Assay (Enzyme Assay Data in the Example Table I)
The assay buffer used in this screen is 0.05 M acetate, pH 4.2, 10% DMSO final, 100 uM genapol (which is a nonionic detergent, below its Critical Micelle Concentration). […] This assay is effectively started by the addition of FRET substrate (50 nM) and the combination is incubated for one hour. The FRET assay is terminated with by addition of Tris buffer, which raises the pH to neutrality, and the fluorescence is determined. The FRET substrate is a peptide with commercially available fluorophore and quencher, on opposite sides of the BACE cleavage site.

BACE = BACE (Homo sapiens (Human), UniProt P56817); assay: In vitro BACE cell-based assay (Aβ40 in conditioned medium, sandwich ELISA)
BACE, sequence (P56817 46-501, species assumed): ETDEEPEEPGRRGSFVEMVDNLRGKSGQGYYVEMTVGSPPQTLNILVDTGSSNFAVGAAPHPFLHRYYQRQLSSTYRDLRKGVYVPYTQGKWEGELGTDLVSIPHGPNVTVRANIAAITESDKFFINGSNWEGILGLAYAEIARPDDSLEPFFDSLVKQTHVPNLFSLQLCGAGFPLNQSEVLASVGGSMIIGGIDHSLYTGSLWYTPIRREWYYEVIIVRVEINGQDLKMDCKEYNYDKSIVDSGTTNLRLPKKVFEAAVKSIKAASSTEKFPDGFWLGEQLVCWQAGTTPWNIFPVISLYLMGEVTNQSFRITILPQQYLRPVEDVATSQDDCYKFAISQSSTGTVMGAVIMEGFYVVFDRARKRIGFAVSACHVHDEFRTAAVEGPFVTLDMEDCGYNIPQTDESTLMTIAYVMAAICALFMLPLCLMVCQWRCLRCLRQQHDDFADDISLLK

Beta Secretase enzyme (BACE), sequence (P56817 46-501): as the sequence (P56817 46-501, species assumed) above
Cathepsin D (Cat D), sequence (P07339 65-412, species assumed): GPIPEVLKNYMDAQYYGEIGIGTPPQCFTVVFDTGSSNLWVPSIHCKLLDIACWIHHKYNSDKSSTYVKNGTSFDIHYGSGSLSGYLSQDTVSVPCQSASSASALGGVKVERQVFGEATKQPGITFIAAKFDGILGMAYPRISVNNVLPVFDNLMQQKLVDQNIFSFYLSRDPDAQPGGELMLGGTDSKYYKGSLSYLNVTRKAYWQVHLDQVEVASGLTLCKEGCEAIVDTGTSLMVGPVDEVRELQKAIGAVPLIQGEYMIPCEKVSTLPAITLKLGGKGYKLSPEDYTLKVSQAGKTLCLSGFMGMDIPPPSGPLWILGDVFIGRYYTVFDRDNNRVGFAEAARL

Structure (SMILES) | IC50 (Cathepsin D (Cat D)) | IC50 [1] | IC50 (BACE)
Cc1cc(OCC#N)cnc1C(=O)Nc1ccc(F)c([C@@]2(C(F)F)N=C(N)O[C@@H]3C[C@@H]32)c1 [Example 184, N-(3-((1R,5S,6R)-3-amino-5-(difluoromethyl)-2-oxa-4-azabicyclo[4.1.0]hept-3-en-5-yl)-4-fluorophenyl)-5-(cyanomethoxy)-3-methylpicolinamide] | 1090 µM | 0.357 µM | 0.62 µM
Cc1cnc(C(=O)Nc2ccc(F)c([C@@]3(C(F)F)N=C(N)O[C@@H]4C[C@@H]43)c2)c(C)c1 [Example 185, N-(3-((1R,5S,6R)-3-amino-5-(difluoromethyl)-2-oxa-4-azabicyclo[4.1.0]hept-3-en-5-yl)-4-fluorophenyl)-3,5-dimethylpicolinamide] | 753 µM | 0.107 µM | 0.148 µM
Cc1cc(C(F)F)cnc1C(=O)Nc1ccc(F)c([C@@]2(C(F)F)N=C(N)O[C@@H]3C[C@@H]32)c1 [Example 186, N-(3-((1R,5S,6R)-3-amino-5-(difluoromethyl)-2-oxa-4-azabicyclo[4.1.0]hept-3-en-5-yl)-4-fluorophenyl)-5-(difluoromethyl)-3-methylpicolinamide] | 768 µM | 0.061 µM | 0.0345 µM
COc1ccc(C(=O)Nc2ccc(F)c([C@@]3(C(F)F)N=C(N)O[C@@H]4C[C@@H]43)c2)nn1 [Example 187, N-(3-((1R,5S,6R)-3-amino-5-(difluoromethyl)-2-oxa-4-azabicyclo[4.1.0]hept-3-en-5-yl)-4-fluorophenyl)-6-methoxypyridazine-3-carboxamide] | 667 µM | 3.44 µM | 1.41 µM
Cc1cc(C(F)(F)F)cnc1C(=O)Nc1ccc(F)c([C@@]2(C(F)F)N=C(N)O[C@@H]3C[C@@H]32)c1 [Example 188, N-(3-((1R,5S,6R)-3-amino-5-(difluoromethyl)-2-oxa-4-azabicyclo[4.1.0]hept-3-en-5-yl)-4-fluorophenyl)-3-methyl-5-(trifluoromethyl) picolinamide] | 159 µM | 0.04 µM | 0.0279 µM
Cc1cc(OCC(F)(F)F)cnc1C(=O)Nc1ccc(F)c([C@@]2(C(F)F)N=C(N)O[C@@H]3C[C@@H]32)c1 [Example 189, N-(3-((1R,5S,6R)-3-amino-5-(difluoromethyl)-2-oxa-4-azabicyclo[4.1.0]hept-3-en-5-yl)-4-fluorophenyl)-3-methyl-5-(2,2,2-trifluoroethoxy) picolinamide] | 770 µM | 0.12 µM | 0.386 µM
Cc1ccc(C(=O)Nc2ccc(F)c([C@@]3(C(F)F)N=C(N)O[C@@H]4C[C@@H]43)c2)nc1 [Example 190, N-(3-((1R,5S,6R)-3-amino-5-(difluoromethyl)-2-oxa-4-azabicyclo[4.1.0]hept-3-en-5-yl)-4-fluorophenyl)-5-methylpicolinamide] | 1470 µM | 0.151 µM | 0.0735 µM
CC(F)(F)Oc1ccc(C(=O)Nc2ccc(F)c([C@@]3(C(F)F)N=C(N)O[C@@H]4C[C@@H]43)c2)nc1 [Example 191, N-(3-((1R,5S,6R)-3-amino-5-(difluoromethyl)-2-oxa-4-azabicyclo[4.1.0]hept-3-en-5-yl)-4-fluorophenyl)-5-(1,1-difluoroethoxy) picolinamide] | 1070 µM | 0.415 µM | 0.536 µM
COc1cnc(C(=O)Nc2ccc(F)c([C@@]3(CF)N=C(N)O[C@@H]4C[C@@H]43)c2)cn1 [Example 194, N-(3-((1R,5S,6R)-3-amino-5-(fluoromethyl)-2-oxa-4-azabicyclo[4.1.0]hept-3-en-5-yl)-4-fluorophenyl)-5-methoxypyrazine-2-carboxamide] | 1230 µM | 0.143 µM | 0.027 µM
COc1ccc(C(=O)Nc2ccc(F)c([C@@]3(CF)N=C(N)O[C@@H]4C[C@@H]43)c2)nc1 [Example 195, N-(3-((1R,5S,6R)-3-amino-5-(fluoromethyl)-2-oxa-4-azabicyclo[4.1.0]hept-3-en-5-yl)-4-fluorophenyl)-5-methoxypicolinamide] | 759 µM | 0.124 µM | 0.0156 µM
Cc1cc(C#N)cnc1C(=O)Nc1ccc(F)c([C@@]2(CF)N=C(N)O[C@@H]3C[C@@H]32)c1 [Example 196, N-(3-((1R,5S,6R)-3-amino-5-(fluoromethyl)-2-oxa-4-azabicyclo[4.1.0]hept-3-en-5-yl)-4-fluorophenyl)-5-cyano-3-methylpicolinamide] | 703 µM | 0.0324 µM | 0.009 µM
C#CCOc1cnc(C(=O)Nc2ccc(F)c([C@@]3(CF)N=C(N)O[C@@H]4C[C@@H]43)c2)cn1 [Example 197, N-(3-((1R,5S,6R)-3-amino-5-(fluoromethyl)-2-oxa-4-azabicyclo[4.1.0]hept-3-en-5-yl)-4-fluorophenyl)-5-(prop-2-yn-1-yloxy)pyrazine-2-carboxamide] | 260 µM | 0.0066 µM | 0.0023 µM
Cc1cc(Cl)cnc1C(=O)Nc1ccc(F)c([C@@]2(CF)N=C(N)O[C@@H]3C[C@@H]32)c1 [Example 198, N-(3-((1R,5S,6R)-3-amino-5-(fluoromethyl)-2-oxa-4-azabicyclo[4.1.0]hept-3-en-5-yl)-4-fluorophenyl)-5-chloro-3-methylpicolinamide] | 349 µM | 0.0338 µM | 0.0152 µM
Cc1c(C(=O)Nc2ccc(F)c([C@@]3(CF)N=C(N)O[C@@H]4C[C@@H]43)c2)nc2ccc(Cl)cn12 [Example 200, N-(3-((1R,5S,6R)-3-amino-5-(fluoromethyl)-2-oxa-4-azabicyclo[4.1.0]hept-3-en-5-yl)-4-fluorophenyl)-6-chloro-3-methylimidazo[1,2-a]pyridine-2-carboxamide] | 465 µM | 0.189 µM | 0.025 µM
NC1=N[C@](CF)(c2cc(NC(=O)c3cc4ccccc4cn3)ccc2F)[C@H]2C[C@H]2O1 [Example 202, N-(3-((1R,5S,6R)-3-amino-5-(fluoromethyl)-2-oxa-4-azabicyclo[4.1.0]hept-3-en-5-yl)-4-fluorophenyl) isoquinoline-3-carboxamide] | 430 µM | 0.499 µM | 0.159 µM
CC#CCOc1ccc(C(=O)Nc2ccc(F)c([C@@]3(CF)N=C(N)O[C@@H]4C[C@@H]43)c2)nc1 [Example 203, N-(3-((1R,5S,6R)-3-amino-5-(fluoromethyl)-2-oxa-4-azabicyclo[4.1.0]hept-3-en-5-yl)-4-fluorophenyl)-5-(but-2-yn-1-yloxy)picolinamide] | 303 µM | 0.0089 µM | 0.0039 µM
N#Cc1ccc(C(=O)Nc2cnc(F)c([C@@]3(CF)N=C(N)O[C@@H]4C[C@@H]43)c2)nc1 [Example 204, N-(5-((1R,5S,6R)-3-amino-5-(fluoromethyl)-2-oxa-4-azabicyclo[4.1.0]hept-3-en-5-yl)-6-fluoropyridin-3-yl)-5-cyanopicolinamide] | 294 µM | 0.145 µM | 0.0335 µM
C#CCOc1cnc(C(=O)Nc2cnc(F)c([C@@]3(CF)N=C(N)O[C@@H]4C[C@@H]43)c2)cn1 [Example 206, N-(5-((1R,5S,6R)-3-amino-5-(fluoromethyl)-2-oxa-4-azabicyclo[4.1.0]hept-3-en-5-yl)-6-fluoropyridin-3-yl)-5-(prop-2-yn-1-yloxy)pyrazine-2-carboxamide] | 311 µM | 0.0094 µM | 0.0064 µM
NC1=N[C@](CF)(c2cc(NC(=O)c3nn(C(F)F)cc3Cl)cnc2F)[C@H]2C[C@H]2O1 [Example 207, N-(5-((1R,5S,6R)-3-amino-5-(fluoromethyl)-2-oxa-4-azabicyclo[4.1.0]hept-3-en-5-yl)-6-fluoropyridin-3-yl)-4-chloro-1-(difluoromethyl)-1H-pyrazole-3-carboxamide] | 370 µM | 0.0578 µM | 0.0176 µM
NC1=N[C@@](c2cc(NC(=O)c3ncc(Cl)cc3Cl)ccc2Cl)(C(F)F)[C@H]2C[C@H]2O1 [Example 211, N-(3-((1R,5S,6R)-3-amino-5-(difluoromethyl)-2-oxa-4-azabicyclo[4.1.0]hept-3-en-5-yl)-4-chlorophenyl)-3,5-dichloropicolinamide] | > 400 µM | 0.0126 µM | 0.0147 µM
Cc1cc(OC(F)F)cnc1C(=O)Nc1ccc(Cl)c([C@@]2(C(F)F)N=C(N)O[C@@H]3C[C@@H]32)c1 [Example 212, N-(3-((1R,5S,6R)-3-amino-5-(difluoromethyl)-2-oxa-4-azabicyclo[4.1.0]hept-3-en-5-yl)-4-chlorophenyl)-5-(difluoromethoxy)-3-methylpicolinamide] | 928 µM | 0.0469 µM | 0.0385 µM
Cc1cc(OC(F)F)cnc1C(=O)Nc1ccc(Cl)c([C@]2(C(F)F)N=C(N)O[C@H]3C[C@H]32)c1 [Example 213, N-(3-((1S,5R,6S)-3-amino-5-(difluoromethyl)-2-oxa-4-azabicyclo[4.1.0]hept-3-en-5-yl)-4-chlorophenyl)-5-(difluoromethoxy)-3-methylpicolinamide] | 1130 µM | 2.42 µM | 1.31 µM
NC1=N[C@@](c2cc(NC(=O)c3ccc(Br)cn3)ccc2Cl)(C(F)F)[C@H]2C[C@H]2O1 [Example 214, N-(3-((1R,5S,6R)-3-amino-5-(difluoromethyl)-2-oxa-4-azabicyclo[4.1.0]hept-3-en-5-yl)-4-chlorophenyl)-5-bromopicolinamide] | 459 µM | 0.0093 µM | 0.0132 µM
CC#CCOc1cnc(C(=O)Nc2ccc(Cl)c([C@@]3(C(F)F)N=C(N)O[C@@H]4C[C@@H]43)c2)cn1 [Example 215, N-(3-((1R,5S,6R)-3-amino-5-(difluoromethyl)-2-oxa-4-azabicyclo[4.1.0]hept-3-en-5-yl)-4-chlorophenyl)-5-(but-2-yn-1-yloxy)pyrazine-2-carboxamide] | 1930 µM | 0.0017 µM | 0.0043 µM
